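Step 1: Grow cells in 96-well plates. Step 2: Expose to compound for 48 hours at 5 concentrations. Step 3: Interpolate endpoints linearly; if unreached, use highest concentration. The concentration for 50% growth inhibition is given as GI50.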 Activity calls are given as the source filed them. Rule as the data show it: active = GI50 up to about 1.1 µM and inactive = higher.
Tests used:
Test in all cases: NCI tumour cell line growth inhibition, 48 h
IGROV-1 = system: IGROV-1
U-251 = system: U-251
SN12C = system: SN12C
SK-MEL-2 = system: SK-MEL-2
OVCAR-4 = system: OVCAR-4
T47D = system: T47D
K562 = system: K562
KM12 = system: KM12
CAKI-1 = system: CAKI-1
SF-268 = system: SF-268
LOX IMVI = system: LOX IMVI
SK-MEL-28 = system: SK-MEL-28
OVCAR-8 = system: OVCAR-8
COLO 205 = system: COLO 205
OVCAR-3 = system: OVCAR-3
786-0 = system: 786-0
SNB-19 = system: SNB-19
A549 = system: A549
PC-3 = system: PC-3
HT-29 = system: HT-29

Row | Structure (SMILES) | GI50 (IGROV-1) | GI50 (U-251) | GI50 (SN12C) | GI50 (SK-MEL-2) | GI50 (OVCAR-4) | GI50 (T47D) | GI50 (K562) | GI50 (KM12) | GI50 (CAKI-1) | GI50 (SF-268) | GI50 (LOX IMVI) | GI50 (SK-MEL-28) | GI50 (OVCAR-8) | GI50 (COLO 205) | GI50 (OVCAR-3) | GI50 (786-0) | GI50 (SNB-19) | GI50 (A549) | GI50 (PC-3) | GI50 (HT-29)
1 | O=C1c2c(O)ccc(O)c2C(=O)c2c(NCCNC(=O)C(O)C(O)C(O)C(O)CO)ccc(NCCNC(=O)C(O)C(O)C(O)C(O)CO)c21 (stereo not given) | < 0.0383 µM (active) | 0.0109 µM (active) | < 0.01 µM (active) | 1.08 µM (active) | 0.18 µM (active) | 0.0102 µM (active) | 0.0104 µM (active) | 0.0277 µM (active) | < 0.01 µM (active) | 0.0241 µM (active) | 0.0134 µM (active) | 0.211 µM (active) | < 0.0231 µM (active) | < 0.01 µM (active) | 0.279 µM (active) | < 0.01 µM (active) | < 0.01 µM (active) | < 0.01 µM (active) | 0.131 µM (active) | 0.03 µM (active)
2 | CC(=O)N1NC(c2ccccc2)=CC(=O)/C1=C/C(=O)c1ccccc1 | 34.3 µM (inactive) | > 100 µM (inactive) | 82.8 µM (inactive) | > 100 µM (inactive) | 84.1 µM (inactive) | 39.3 µM (inactive) | 56 µM (inactive) | 75.5 µM (inactive) | 29.7 µM (inactive) | 29.2 µM (inactive) | 40.9 µM (inactive) | > 100 µM (inactive) | > 100 µM (inactive) | > 100 µM (inactive) | 28.6 µM (inactive) | > 100 µM (inactive) | 58.7 µM (inactive) | 53.1 µM (inactive) | > 100 µM (inactive) | > 100 µM (inactive)
3 | N#Cc1c(NC(=O)C(F)(F)F)sc2c3c(=O)c4ccccc4c(=O)c=3oc3ccccc3c12 | 11.9 µM (inactive) | 14.7 µM (inactive) | 21.9 µM (inactive) | 15 µM (inactive) | 14.7 µM (inactive) | 21.4 µM (inactive) | 19.8 µM (inactive) | 9.84 µM (inactive) | 15.4 µM (inactive) | 7.98 µM (inactive) | 13 µM (inactive) | 20.4 µM (inactive) | 15.7 µM (inactive) | 14.7 µM (inactive) | 10.8 µM (inactive) | 25.6 µM (inactive) | 20.3 µM (inactive) | 19 µM (inactive) | 8.93 µM (inactive) | 19.2 µM (inactive)
4 | COc1ccc(NC(=S)N/N=C/c2cccc(C)n2)cc1 | 2.37 µM (inactive) | 4.09 µM (inactive) | 5.79 µM (inactive) | 6.4 µM (inactive) | > 24.1 µM (inactive) | 3.62 µM (inactive) | 1.62 µM (inactive) | 3.98 µM (inactive) | 4.25 µM (inactive) | 3.94 µM (inactive) | 3.65 µM (inactive) | 5.68 µM (inactive) | 3.74 µM (inactive) | 2.63 µM (inactive) | 3.48 µM (inactive) | 3.98 µM (inactive) | 7.16 µM (inactive) | 5.22 µM (inactive) | 4.58 µM (inactive) | 3.94 µM (inactive)
5 | CC1=C/C(O)CC(=O)Cc2nc(co2)C(=O)N2CCC=C2C(=O)OC(C(C)C)C(C)/C=C\C(=O)NC/C=C\1 (stereo not given) | 16.6 µM (inactive) | 35.8 µM (inactive) | 14.9 µM (inactive) | 17.4 µM (inactive) | 57.9 µM (inactive) | 12.2 µM (inactive) | 31 µM (inactive) | 12.4 µM (inactive) | 22 µM (inactive) | 16 µM (inactive) | 17.2 µM (inactive) | 19.6 µM (inactive) | 15.3 µM (inactive) | 16.3 µM (inactive) | 19.8 µM (inactive) | 20.8 µM (inactive) | 89.3 µM (inactive) | 29.9 µM (inactive) | 27.1 µM (inactive) | 15.5 µM (inactive)
6 | COC(=O)/C=C\c1ccc2c(c1)CC1(C2)Cc2ccc(/C=C/C(=O)OC)cc2C1 (stereo not given) | > 31.6 µM (inactive) | 20.7 µM (inactive) | > 31.6 µM (inactive) | > 10 µM (inactive) | 22.8 µM (inactive) | > 31.6 µM (inactive) | > 31.6 µM (inactive) | > 31.6 µM (inactive) | 0.918 µM (active) | > 100 µM (inactive) | > 31.6 µM (inactive) | > 100 µM (inactive) | 30.8 µM (inactive) | > 31.6 µM (inactive) | > 31.6 µM (inactive) | 19.6 µM (inactive) | 27 µM (inactive) | > 31.6 µM (inactive) | > 31.6 µM (inactive) | > 31.6 µM (inactive)
7 | Cc1nc2ccccc2n1Cc1ccc(NC(=S)Nc2ccccc2)cc1 | > 100 µM (inactive) | 82.6 µM (inactive) | 76.4 µM (inactive) | 73.8 µM (inactive) | 28.6 µM (inactive) | 18.6 µM (inactive) | 33.4 µM (inactive) | 54.6 µM (inactive) | 77.4 µM (inactive) | 91 µM (inactive) | 70.6 µM (inactive) | 66.7 µM (inactive) | 60.1 µM (inactive) | 34.8 µM (inactive) | 27.9 µM (inactive) | > 100 µM (inactive) | > 100 µM (inactive) | 80 µM (inactive) | 75.7 µM (inactive) | 32.8 µM (inactive)
8 | CC(C)(C)OC(=O)CN1CCN(CC(=O)N2CCN(C(=O)OCc3ccccc3)CC2)CCN(CC(=O)OC(C)(C)C)CCN(CC(=O)N2CCN(C(=O)OCc3ccccc3)CC2)CC1 | 0.853 µM (active) | 1.7 µM (inactive) | 2.76 µM (inactive) | 1.82 µM (inactive) | 2.73 µM (inactive) | 3.12 µM (inactive) | 0.989 µM (active) | 1.42 µM (inactive) | 10.1 µM (inactive) | 2.48 µM (inactive) | 1.25 µM (inactive) | 4.93 µM (inactive) | 2.83 µM (inactive) | 1.15 µM (inactive) | 2.83 µM (inactive) | 2.21 µM (inactive) | 3.48 µM (inactive) | 3.27 µM (inactive) | 2.51 µM (inactive) | 0.318 µM (active)
9 | O=C(O)C12CC3(C(=O)O)CC(C(=O)O)(CC(C(=O)O)(C1)C3=O)C2=O | > 100 µM (inactive) | > 100 µM (inactive) | > 100 µM (inactive) | > 100 µM (inactive) | > 100 µM (inactive) | > 100 µM (inactive) | > 100 µM (inactive) | > 100 µM (inactive) | > 100 µM (inactive) | > 100 µM (inactive) | > 100 µM (inactive) | > 100 µM (inactive) | > 100 µM (inactive) | > 100 µM (inactive) | > 100 µM (inactive) | > 100 µM (inactive) | > 100 µM (inactive) | > 100 µM (inactive) | > 100 µM (inactive) | > 100 µM (inactive)
10 | Cc1nc2sc3cccc(Cl)c3n2c(=O)c1/N=N/c1ccc(Cl)cc1 | 63.8 µM (inactive) | > 100 µM (inactive) | > 100 µM (inactive) | > 100 µM (inactive) | > 100 µM (inactive) | 45.3 µM (inactive) | 63 µM (inactive) | > 100 µM (inactive) | > 100 µM (inactive) | 58.9 µM (inactive) | 58.1 µM (inactive) | > 100 µM (inactive) | > 100 µM (inactive) | 94.6 µM (inactive) | 46.7 µM (inactive) | > 100 µM (inactive) | > 100 µM (inactive) | 77.8 µM (inactive) | 51.2 µM (inactive) | 67.1 µM (inactive)
11 | COc1ccc(-c2cc(=O)c3c(O)c(OC)c(OC)c(OC)c3o2)cc1OC [5-DEMETHYLNOBILETIN] | 53.1 µM (inactive) | 39.7 µM (inactive) | > 100 µM (inactive) | 91.2 µM (inactive) | > 100 µM (inactive) | 4.28 µM (inactive) | > 100 µM (inactive) | > 100 µM (inactive) | > 100 µM (inactive) | 10.1 µM (inactive) | 47.8 µM (inactive) | > 100 µM (inactive) | > 100 µM (inactive) | > 100 µM (inactive) | > 100 µM (inactive) | 58.7 µM (inactive) | > 100 µM (inactive) | > 100 µM (inactive) | > 100 µM (inactive) | > 100 µM (inactive)
12 | Cc1ccc(C(=O)/C=C2/Nc3ccccc3NC2=O)c(C)c1 | 12.7 µM (inactive) | 11.2 µM (inactive) | 16 µM (inactive) | 46.5 µM (inactive) | 2.7 µM (inactive) | 22.1 µM (inactive) | 61.5 µM (inactive) | 20.8 µM (inactive) | 3.95 µM (inactive) | 6.95 µM (inactive) | 22.6 µM (inactive) | 14.7 µM (inactive) | 5.28 µM (inactive) | 62.1 µM (inactive) | 32 µM (inactive) | 4.19 µM (inactive) | 9.71 µM (inactive) | 13.7 µM (inactive) | 18.2 µM (inactive) | 23.4 µM (inactive)
13 | CC(CC(=O)O)(CC(=O)O)C(=O)O | > 100 µM (inactive) | > 100 µM (inactive) | > 100 µM (inactive) | > 100 µM (inactive) | > 100 µM (inactive) | > 100 µM (inactive) | > 100 µM (inactive) | > 100 µM (inactive) | > 100 µM (inactive) | > 100 µM (inactive) | > 100 µM (inactive) | > 100 µM (inactive) | > 100 µM (inactive) | > 100 µM (inactive) | > 100 µM (inactive) | > 100 µM (inactive) | > 100 µM (inactive) | > 100 µM (inactive) | > 100 µM (inactive) | > 100 µM (inactive)

Source: ChEMBL document CHEMBL1201862, “PubChem BioAssay data set” (2004)
